# Experimental data published in ChEMBL document CHEMBL4680187, “Optimization of EphA2 antagonists based on a lithocholic acid core led to the identification of UniPR505, a new 3α-carbamoyloxy derivative with antiangiogenetic properties” (Eur J Med Chem, 2020).
# Calls of active or inactive are those of the source. The calls are words filed in the database; no cut-off is given here.
# Legend:
# Ephrin type-A receptor 2 = Ephrin type-A receptor 2 (Mus musculus, UniProt Q03145); assay: Displacement of biotinylated ephrin-A1-Fc from recombinant mouse c-terminal His6-tagged EphA2 Fc (Ala22 to Ala535 residues) preincubated for 1 hr followed by ephrin-A1-FC addition and measured after 4 hrs by ELISA
# Ephrin type-A receptor 2, sequence (Q03145 whole entry): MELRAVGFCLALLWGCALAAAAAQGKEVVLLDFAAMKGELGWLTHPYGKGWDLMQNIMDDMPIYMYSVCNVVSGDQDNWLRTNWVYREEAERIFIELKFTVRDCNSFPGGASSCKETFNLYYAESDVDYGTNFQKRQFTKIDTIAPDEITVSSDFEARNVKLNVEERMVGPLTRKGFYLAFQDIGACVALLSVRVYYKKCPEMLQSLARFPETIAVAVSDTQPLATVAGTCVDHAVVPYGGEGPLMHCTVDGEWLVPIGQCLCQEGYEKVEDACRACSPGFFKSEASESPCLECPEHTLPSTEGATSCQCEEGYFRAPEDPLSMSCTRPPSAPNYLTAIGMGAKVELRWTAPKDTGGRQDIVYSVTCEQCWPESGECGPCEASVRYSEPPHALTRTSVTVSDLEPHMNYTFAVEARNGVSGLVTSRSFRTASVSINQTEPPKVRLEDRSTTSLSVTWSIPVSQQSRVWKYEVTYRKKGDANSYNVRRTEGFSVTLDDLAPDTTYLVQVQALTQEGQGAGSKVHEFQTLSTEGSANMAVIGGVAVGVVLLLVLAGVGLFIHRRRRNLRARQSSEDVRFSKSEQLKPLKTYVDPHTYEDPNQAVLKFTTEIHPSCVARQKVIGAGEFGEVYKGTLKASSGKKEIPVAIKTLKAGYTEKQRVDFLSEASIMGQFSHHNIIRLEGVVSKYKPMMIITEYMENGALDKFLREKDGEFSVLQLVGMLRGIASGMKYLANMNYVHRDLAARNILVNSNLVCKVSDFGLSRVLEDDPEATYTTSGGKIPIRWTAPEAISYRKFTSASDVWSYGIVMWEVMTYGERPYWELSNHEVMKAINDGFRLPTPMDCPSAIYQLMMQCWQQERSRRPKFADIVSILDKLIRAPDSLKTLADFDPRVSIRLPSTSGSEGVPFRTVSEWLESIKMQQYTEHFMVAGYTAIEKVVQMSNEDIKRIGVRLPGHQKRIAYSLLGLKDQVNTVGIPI
# Chorioallantoic membrane = assay: Antiangiogenic activity in Leghorn chicken fertilized egg chorioallantoic membrane assessed as reduction in unstimulated neovascularization at 10 uM measured after 3 days by CAM assay; format: functional, tissue-based; conditions: Gallus gallus, time 3.0 day
# PC-3 = assay: Cytotoxicity against human PC3 cells after 2 hrs by LDH assay; format: cell-based; conditions: pc-3, 2 h
smiles,measurement,setting,value
CCCCCCCCNC(=O)O[C@@H]1CC[C@@]2(C)[C@H](CC[C@@H]3[C@@H]2CC[C@]2(C)[C@@H]([C@H](C)CCC(=O)N[C@H](CC(=O)O)Cc4c[nH]c5ccccc45)CC[C@@H]32)C1,IC50,Ephrin type-A receptor 2,15 µM
C[C@H](CCC(=O)O)[C@H]1CC[C@H]2[C@@H]3CC[C@@H]4C[C@H](OC(=O)NC5CCCCC5)CC[C@]4(C)[C@H]3CC[C@]12C,IC50,Ephrin type-A receptor 2,2.7 µM
C[C@H](CCC(=O)N[C@H](CC(=O)O)Cc1c[nH]c2ccccc12)[C@H]1CC[C@H]2[C@@H]3CC[C@@H]4C[C@H](OC(N)=O)CC[C@]4(C)[C@H]3CC[C@]12C,IC50,Ephrin type-A receptor 2,1.2 µM
same,Activity,Chorioallantoic membrane,inactive
same,Activity,PC-3,Non-Toxic
C[C@H](CCC(=O)O)[C@H]1CC[C@H]2[C@@H]3CC[C@@H]4C[C@H](OC(=O)Nc5ccccc5)CC[C@]4(C)[C@H]3CC[C@]12C,IC50,Ephrin type-A receptor 2,38 µM
CC(C)NC(=O)O[C@@H]1CC[C@@]2(C)[C@H](CC[C@@H]3[C@@H]2CC[C@]2(C)[C@@H]([C@H](C)CCC(=O)N[C@H](CC(=O)O)Cc4c[nH]c5ccccc45)CC[C@@H]32)C1,IC50,Ephrin type-A receptor 2,7.1 µM
C[C@H](CCC(=O)O)[C@H]1CC[C@H]2[C@@H]3CC[C@@H]4C[C@H](OC(N)=O)CC[C@]4(C)[C@H]3CC[C@]12C,IC50,Ephrin type-A receptor 2,17 µM
C[C@H](CCC(=O)O)[C@H]1CC[C@H]2[C@@H]3CC[C@@H]4C[C@@H](OC(N)=O)CC[C@]4(C)[C@H]3CC[C@]12C,IC50,Ephrin type-A receptor 2,9.1 µM
C[C@H](CCC(=O)N[C@H](CC(=O)O)Cc1c[nH]c2ccccc12)[C@H]1CC[C@H]2[C@@H]3CC[C@@H]4C[C@@H](OC(N)=O)CC[C@]4(C)[C@H]3CC[C@]12C,IC50,Ephrin type-A receptor 2,5.2 µM
CC(C)NC(=O)O[C@@H]1CC[C@@]2(C)[C@H](CC[C@@H]3[C@@H]2CC[C@]2(C)[C@@H]([C@H](C)CCC(=O)O)CC[C@@H]32)C1,IC50,Ephrin type-A receptor 2,12 µM
C[C@H](CCC(=O)N[C@H](CC(=O)O)Cc1c[nH]c2ccccc12)[C@H]1CC[C@H]2[C@@H]3CC[C@@H]4C[C@H](OC(=O)Nc5ccccc5)CC[C@]4(C)[C@H]3CC[C@]12C,IC50,Ephrin type-A receptor 2,5.5 µM
CCCCCCCCNC(=O)O[C@@H]1CC[C@@]2(C)[C@H](CC[C@@H]3[C@@H]2CC[C@]2(C)[C@@H]([C@H](C)CCC(=O)O)CC[C@@H]32)C1,IC50,Ephrin type-A receptor 2,4.5 µM
CCCCCCNC(=O)O[C@@H]1CC[C@@]2(C)[C@H](CC[C@@H]3[C@@H]2CC[C@]2(C)[C@@H]([C@H](C)CCC(=O)O)CC[C@@H]32)C1,IC50,Ephrin type-A receptor 2,3.3 µM
CCCCCCNC(=O)O[C@@H]1CC[C@@]2(C)[C@H](CC[C@@H]3[C@@H]2CC[C@]2(C)[C@@H]([C@H](C)CCC(=O)N[C@H](CC(=O)O)Cc4c[nH]c5ccccc45)CC[C@@H]32)C1,IC50,Ephrin type-A receptor 2,1.5 µM
same,Activity,PC-3,Non-Toxic
CCCCNC(=O)O[C@@H]1CC[C@@]2(C)[C@H](CC[C@@H]3[C@@H]2CC[C@]2(C)[C@@H]([C@H](C)CCC(=O)N[C@H](CC(=O)O)Cc4c[nH]c5ccccc45)CC[C@@H]32)C1,IC50,Ephrin type-A receptor 2,1.1 µM
same,Activity,PC-3,Non-Toxic
CCCCNC(=O)O[C@@H]1CC[C@@]2(C)[C@H](CC[C@@H]3[C@@H]2CC[C@]2(C)[C@@H]([C@H](C)CCC(=O)O)CC[C@@H]32)C1,IC50,Ephrin type-A receptor 2,3.7 µM
C[C@H](CCC(=O)N[C@H](CC(=O)O)Cc1c[nH]c2ccccc12)[C@H]1CC[C@H]2[C@@H]3CC[C@@H]4C[C@H](OC(=O)NC5CCCCC5)CC[C@]4(C)[C@H]3CC[C@]12C,IC50,Ephrin type-A receptor 2,1.2 µM
same,Activity,PC-3,Non-Toxic
CCNC(=O)O[C@@H]1CC[C@@]2(C)[C@H](CC[C@@H]3[C@@H]2CC[C@]2(C)[C@@H]([C@H](C)CCC(=O)O)CC[C@@H]32)C1,IC50,Ephrin type-A receptor 2,30 µM
